Measurements as given in PMC11818404, “Experimental and Computational Investigation of the Target and Mechanisms of Gelsemium Alkaloids in the Central Nervous System” (International Journal of Molecular Sciences, 2025).
Read-outs that look alike come from different tables or passages of the source.

How the values were obtained:
α1β GlyR = molecular target: T1, α1β GlyR (Homo sapiens, UniProt P23415); assay: Whole-cell patch-clamp of glycine-evoked currents, transfected HEK293 cells; type: cell-based; settings: α1βGlyR; alkaloid 300 µM co-applied with subsaturated glycine; mean ± SE
T1 construct: expressed in transfected cells; host or cells: HEK293
T1 sequence (P48167 23-497 partner, one chain of several): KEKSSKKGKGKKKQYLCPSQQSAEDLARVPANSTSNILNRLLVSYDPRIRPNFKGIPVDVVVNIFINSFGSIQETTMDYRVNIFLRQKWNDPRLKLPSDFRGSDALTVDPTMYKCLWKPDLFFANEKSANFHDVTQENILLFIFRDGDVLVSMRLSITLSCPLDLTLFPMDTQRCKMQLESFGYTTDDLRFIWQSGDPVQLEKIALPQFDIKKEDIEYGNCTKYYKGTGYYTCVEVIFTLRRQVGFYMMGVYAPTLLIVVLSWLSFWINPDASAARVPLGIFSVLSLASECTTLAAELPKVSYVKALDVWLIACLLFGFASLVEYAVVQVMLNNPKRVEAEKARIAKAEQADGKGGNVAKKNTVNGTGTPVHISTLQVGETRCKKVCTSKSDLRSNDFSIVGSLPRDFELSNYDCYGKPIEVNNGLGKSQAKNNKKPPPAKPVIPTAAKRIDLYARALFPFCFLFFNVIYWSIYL
Protocol: (§1) HEK293 cells were obtained from Beijing Aisiyipu Biotechnology Co. Cells were cultured in Dulbecco’s Modified Eagle Medium containing 10% fetal bovine serum, 800 µg/mL G418, 200 µg/mL hygromycin B, and 100 µg/mL Zeocin at 37 °C and 5% CO2. Cells were transfected with plasmids encoding the following proteins: (i). nAChRα7 (CHRNA7, NM_000746; RIC3, NM_024557), (ii) GABA-α1 (NM_000806), GABA-β2 (NM_021911), and GABA-γ2 (NM_198904), and (iii) GlyR α1 (NM_000171) and GlyR β (NM_000824). To obtain β-containing GlyRs, an α/β transfection ratio of 1:5 was used; for γ2-containing GABAARs, the ratio was 1:2:5 of α/β/γ2.
(§2) For whole-cell recording, the […] contained 140 mM NaCl, 3.5 mM KCl, 1 mM MgCl2•6H2O, 2 mM CaCl2•2H2O, 10 mM D-glucose, 10 mM HEPES, and 1.25 mM NaH2PO4•2H2O, (pH 7.4). The […] solution contained 50 mM CsCl, 10 mM NaCl, 10 mM HEPES, 60 mM CsF, and 20 mM EGTA (pH 7.2). Briefly, during the diaphragm clamp operation, the glass capillary was drawn into a recording electrode using a microelectrode puller. Subsequently, the electrode filled with intracellular fluid was loaded into the microelectrode holder, and the cell-lined coverslip was placed in the recording bath under an inverted microscope, followed by manipulation of the microelectrode manipulator to immerse the electrode into the extracellular fluid under an inverted microscope. Electrode resistance (Rpip) was recorded, and the electrode was gently positioned on the cell surface with negative pressure applied to establish a GΩ-level high-resistance seal. Fast capacitance compensation was performed, followed by additional suction to breach the cell membrane and form a whole-cell recording. Finally, slow capacitance compensation was performed, and experimental parameters such as series resistance (Rs) were recorded. Leakage compensation was not provided. Whole-cell patch-clamp recordings were performed at −70 mV using HEKA EPC-10 (HEKA Elektronik GmbH, Reutlingen, Germany) amplifiers. Data acquisition was performed using the HEKA PatchMaster. We aimed to study the allosteric regulation of GABAAR and GlyR by Gelsemium alkaloids, so the effects of the alkaloids on Gly- or GABA-evoked currents were determined via co-application of subsaturated agonist concentrations (EC10 and EC50) together with the alkaloid. The EC50 for α1 GlyR was 30 µM, whereas the EC10 for α1β2γ2 GABAAR was 3.0 µM. The choice of specific agonist concentration was determined based on previous studies. We first examined the effects of each Gelsemium alkaloid at a concentration of 300 µM on channel currents. The peak receptor currents for subsaturated concentrations of specific agonists and the peak receptor currents after administration of each drug were recorded, and the modulation percentage was calculated for each drug. The modulation percentage was calculated using Equation (1):Percentage change = ((Ialkaloid − Iagonist)/Iagonist),(1) where Ialkaloid denotes the current in the presence of a given concentration of alkaloid, and Iagonist denotes the amplitude of the control glycine or GABA current elicited by the activation of a given receptor. To construct the concentration-response curve, six graded concentrations (1 µM, 3 µM, 10 µM, 30 µM, 100 µM, and 300 µM) of each Gelsemium alkaloid were tested. The concentration-response curve parameters for alkaloid inhibition were obtained from the curve of the normalized concentration-response data points fitted using Equation (2):Iagonist = Imax (agonist)nH/((agonist)nH + (EC50) nH), (2) where Iagonist is the current in the presence of a given subsaturated concentration of GABA, and EC50 is the concentration required for the half-maximal response. Each drug was repeated four times per concentration, and the data were expressed as the mean ± SE All electrophysiological tests performed at 20 °C.

α1 GlyR = molecular target: T2, α1 GlyR (Homo sapiens, UniProt P23415); assay: as above; type: cell-based; settings: for activity on GlyR currents (in words): GlyRs (α1 and α1β), single concentration 300 µM; for percentage change in peak current modulation: alkaloid 300 µM co-applied with subsaturated glycine, mean ± SE
T2 construct: expressed in transfected cells; host or cells: HEK293
T2 sequence (P23415 29-449 isoform P23415-2 limits assumed): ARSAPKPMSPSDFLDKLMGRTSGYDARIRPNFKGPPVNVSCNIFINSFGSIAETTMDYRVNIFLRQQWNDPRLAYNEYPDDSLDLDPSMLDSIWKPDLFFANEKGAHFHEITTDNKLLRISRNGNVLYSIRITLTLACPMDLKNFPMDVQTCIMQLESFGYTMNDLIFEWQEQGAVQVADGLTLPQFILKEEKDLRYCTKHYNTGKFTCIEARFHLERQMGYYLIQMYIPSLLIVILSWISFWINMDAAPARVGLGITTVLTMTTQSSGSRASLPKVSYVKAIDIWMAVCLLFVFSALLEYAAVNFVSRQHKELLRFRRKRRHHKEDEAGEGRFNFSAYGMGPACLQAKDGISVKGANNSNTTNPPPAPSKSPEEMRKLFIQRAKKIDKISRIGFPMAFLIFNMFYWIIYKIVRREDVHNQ
Protocol: as §1, §2

α1β2γ2 GABAAR = molecular target: T3, α1β2γ2 GABAAR (Homo sapiens, UniProt P14867+P18507+P47870); assay: Whole-cell patch-clamp of GABA-evoked currents, transfected HEK293 cells; type: cell-based; settings: for Hillslope: GABAAR concentration-response curve; for percentage change in peak current modulation / IC50: GABAAR; for percentage change in peak current modulation: alkaloid 300 µM co-applied with subsaturated GABA, mean ± SE; for IC50: reduction of GABA-evoked current, n = 4
T3 construct: expressed in transfected cells; host or cells: HEK293
T3 sequence (P18507 40-475): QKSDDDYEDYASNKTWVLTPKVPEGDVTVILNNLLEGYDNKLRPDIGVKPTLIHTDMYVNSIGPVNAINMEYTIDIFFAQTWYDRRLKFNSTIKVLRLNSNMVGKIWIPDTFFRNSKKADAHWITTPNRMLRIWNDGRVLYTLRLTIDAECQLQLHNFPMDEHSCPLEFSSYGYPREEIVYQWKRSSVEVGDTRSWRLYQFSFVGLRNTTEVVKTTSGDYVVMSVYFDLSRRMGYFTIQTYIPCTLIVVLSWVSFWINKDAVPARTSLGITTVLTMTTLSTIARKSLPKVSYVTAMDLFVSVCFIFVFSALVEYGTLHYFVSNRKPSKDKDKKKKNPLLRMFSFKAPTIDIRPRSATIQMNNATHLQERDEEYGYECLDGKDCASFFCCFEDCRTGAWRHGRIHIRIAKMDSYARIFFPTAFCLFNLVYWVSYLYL
T3 sequence (P14867 28-456): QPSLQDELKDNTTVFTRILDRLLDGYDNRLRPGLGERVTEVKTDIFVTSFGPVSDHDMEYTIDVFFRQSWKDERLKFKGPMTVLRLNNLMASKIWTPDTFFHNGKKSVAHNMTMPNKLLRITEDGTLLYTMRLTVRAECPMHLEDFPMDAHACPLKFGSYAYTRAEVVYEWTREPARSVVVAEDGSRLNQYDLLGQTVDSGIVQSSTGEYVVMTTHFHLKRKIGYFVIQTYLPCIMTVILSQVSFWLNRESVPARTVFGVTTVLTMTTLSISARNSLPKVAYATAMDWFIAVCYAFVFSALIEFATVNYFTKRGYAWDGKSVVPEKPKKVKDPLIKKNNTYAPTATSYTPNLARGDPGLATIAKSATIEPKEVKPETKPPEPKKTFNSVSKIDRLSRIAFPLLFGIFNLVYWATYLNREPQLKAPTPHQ
T3 sequence (P47870 26-512): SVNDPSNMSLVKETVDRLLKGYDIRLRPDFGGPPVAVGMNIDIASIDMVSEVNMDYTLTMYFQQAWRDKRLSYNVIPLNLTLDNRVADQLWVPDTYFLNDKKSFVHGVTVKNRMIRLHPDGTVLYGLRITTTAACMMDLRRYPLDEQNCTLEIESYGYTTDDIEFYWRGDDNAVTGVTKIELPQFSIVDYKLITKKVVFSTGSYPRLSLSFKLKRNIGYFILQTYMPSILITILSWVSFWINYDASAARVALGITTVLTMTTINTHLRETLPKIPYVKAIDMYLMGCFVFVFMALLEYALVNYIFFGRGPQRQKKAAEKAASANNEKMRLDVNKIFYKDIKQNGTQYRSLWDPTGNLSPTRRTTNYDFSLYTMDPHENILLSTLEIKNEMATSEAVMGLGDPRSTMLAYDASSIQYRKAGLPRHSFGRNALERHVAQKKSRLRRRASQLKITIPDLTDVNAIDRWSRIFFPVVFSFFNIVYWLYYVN

nAChRα7 = molecular target: T4, nAChRα7 (Homo sapiens, UniProt P36544); assay: Whole-cell patch-clamp of acetylcholine ion channel currents, transfected HEK293 cells; type: cell-based; settings: nACHR; alkaloid 300 µM; mean ± SE
T4 construct: expressed in transfected cells; host or cells: HEK293
T4 sequence (P36544 23-502): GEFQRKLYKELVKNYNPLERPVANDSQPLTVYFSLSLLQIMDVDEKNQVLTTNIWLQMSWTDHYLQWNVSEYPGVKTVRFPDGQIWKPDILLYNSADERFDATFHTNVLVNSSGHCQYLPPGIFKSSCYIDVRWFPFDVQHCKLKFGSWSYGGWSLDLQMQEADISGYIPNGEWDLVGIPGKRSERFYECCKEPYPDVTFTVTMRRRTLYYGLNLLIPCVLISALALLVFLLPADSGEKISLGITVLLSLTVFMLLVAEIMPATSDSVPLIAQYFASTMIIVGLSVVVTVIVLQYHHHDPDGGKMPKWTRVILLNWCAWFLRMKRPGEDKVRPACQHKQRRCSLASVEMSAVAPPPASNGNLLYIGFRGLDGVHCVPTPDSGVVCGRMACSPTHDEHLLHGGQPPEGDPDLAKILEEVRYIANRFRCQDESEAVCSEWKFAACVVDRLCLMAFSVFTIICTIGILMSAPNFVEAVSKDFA
Protocol: as §1
For whole-cell recording, the […] contained 140 mM NaCl, 3.5 mM KCl, 1 mM MgCl2•6H2O, 2 mM CaCl2•2H2O, 10 mM D-glucose, 10 mM HEPES, and 1.25 mM NaH2PO4•2H2O, (pH 7.4). […] Electrode resistance (Rpip) was recorded, and the electrode was gently positioned on the cell surface with negative pressure applied to establish a GΩ-level high-resistance seal. […] Finally, slow capacitance compensation was performed, and experimental parameters such as series resistance (Rs) were recorded. […] We aimed to study the allosteric regulation of GABAAR and GlyR by Gelsemium alkaloids, so the effects of the alkaloids on Gly- or GABA-evoked currents were determined via co-application of subsaturated agonist concentrations (EC10 and EC50) together with the alkaloid. […]

GABAAR = system: GABAAR; design: method as in PMID 32541553, PMID 32391682; settings: read-out: EC50 for positive allosteric modulation of GABAAR; cited from earlier work
GlyR = settings: read-out: IC50 for GlyR; cited from earlier work
[1] = α1GlyR, reduction of glycine-evoked current, n = 4, read-out: IC50

Row | Compound | percentage change in peak current modulation (α1β GlyR) | IC50 (α1 GlyR) | activity on GlyR currents (in words) (α1 GlyR) | percentage change in peak current modulation (α1 GlyR; α1GlyR) | Hillslope (α1β2γ2 GABAAR) | percentage change in peak current modulation (α1β2γ2 GABAAR) | IC50 (α1β2γ2 GABAAR) | IC50 (α1 GlyR; [1]) | percentage change in peak current modulation (nAChRα7) | EC50 (GABAAR) | EC50 (α1β2γ2 GABAAR) | IC50 (GlyR)
1 | C=C[C@]12CN(C)[C@@H]3[C@H]4CO[C@H](C[C@H]41)[C@]1(C(=O)Nc4ccccc41)[C@@H]32 [Gelsemine, gelsemine] | −92.18% ± 2.87% | 10.4 µM | strong activity | −70.39% ± 4.85% | −0.9158 | −58.78% ± 1.74% | 171 µM | – | – | – | – | –
2 | C=C[C@]12CN(C)[C@@H]3[C@H]4CO[C@H](C[C@H]41)[C@]1(C(=O)N(OC)c4ccccc41)[C@@H]32 [Gelsevirine, gelsevirine] | −99.06% ± 0.62% | – | strong activity | −98.89% ± 0.68% | −1.110 | −55.82% ± 0.35% | 252 µM | 82.9 µM | 0.75% ± 0.65% | – | – | –
3 | CN1C(=O)CN=C(c2ccccc2)c2cc(Cl)ccc21 [diazepam] | – | – | – | – | – | – | – | – | – | ~0.005 µM | – | –
4 | CCC1=N[C@H]2C[C@@]3(C(=O)N(OC)c4ccccc43)[C@H]3C[C@@H]1[C@@H]2CO3 [Gelsenicine, gelsenicine] | −10.44% ± 5.99% | – | minimal effect | −13.64% ± 4.34% | 0.8002 | 58.63% ± 5.56% | – | – | – | – | 192 µM | –
5 | O=C1C[C@@H]2OCC=C3CN4CC[C@]56c7ccccc7N1[C@H]5[C@H]2[C@H]3C[C@H]46 [strychnine] | – | – | – | – | – | – | – | – | – | – | – | ~0.18 µM
6 | humantenirine | −16.82% ± 4.41% | – | minimal effect | −11.75% ± 4.34% | – | 41.66% ± 0.53% | – | – | – | – | – | –
7 | C=C[C@@]12CN(C)[C@H]3C[C@]14C(=Nc1ccccc14)[C@H]1C[C@@H]2[C@@H]3CO1 [Koumine, koumine] | −87.29% ± 0.52% | – | strong activity | −95.53% ± 0.70% | – | – | – | 9.59 µM | 1.42% ± 0.00% | – | – | –
